Source: ChEMBL document CHEMBL1201862, “PubChem BioAssay data set” (2004)
Activity calls are given as the source filed them.

Key:
[1] = molecular target: T1, Voltage-gated N-type calcium channel alpha-1B subunit/Amyloid beta A4 precursor protein-binding family A member 1 (Homo sapiens, UniProt Q00975+Q02410); assay type: protein assay
[2] = molecular target: T1, Voltage-gated N-type calcium channel alpha-1B subunit/Amyloid beta A4 precursor protein-binding family A member 1; assay type: protein assay; remark: listed apart in the source
[3] = molecular target: T2, E3 ubiquitin-protein ligase XIAP (Homo sapiens, UniProt P98170); test: XIAP antagonists, biochemical, IAP family, fluorescence polarization (AID 1018); assay type: functional
T2 sequence (P98170 whole entry): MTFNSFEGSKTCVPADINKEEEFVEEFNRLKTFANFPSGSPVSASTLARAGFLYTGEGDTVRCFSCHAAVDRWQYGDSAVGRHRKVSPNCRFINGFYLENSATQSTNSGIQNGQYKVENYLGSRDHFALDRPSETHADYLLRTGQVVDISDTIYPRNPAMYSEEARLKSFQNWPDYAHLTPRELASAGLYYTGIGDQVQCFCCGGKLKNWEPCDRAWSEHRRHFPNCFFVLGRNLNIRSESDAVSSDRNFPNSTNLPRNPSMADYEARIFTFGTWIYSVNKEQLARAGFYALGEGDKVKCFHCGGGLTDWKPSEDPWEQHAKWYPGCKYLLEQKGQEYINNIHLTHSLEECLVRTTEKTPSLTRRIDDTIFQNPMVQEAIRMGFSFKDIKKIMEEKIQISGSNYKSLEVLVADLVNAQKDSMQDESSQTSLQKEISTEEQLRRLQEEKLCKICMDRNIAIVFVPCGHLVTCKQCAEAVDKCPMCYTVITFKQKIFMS

[4] = molecular target: T2, E3 ubiquitin-protein ligase XIAP; test: Counter Screen using XIAP-Bir3 for Chemical Antagonists of Bir1/2 domains of IAP-family anti-apoptotic proteins. [Related pubchem assays (depositor defined):AID1018, AID1449, AID1514, AID1638, AID1749, AID1750, AID488957, AID488963]
[5] = THP-1 cell cytotoxicity, dose response, cytotoxicity control for non-replicating M. tuberculosis project (AID 489025); assay type: functional
cells = assay type: functional
[6] = Vero E6 cell cytotoxicity, dose response, cytotoxicity control for non-replicating M. tuberculosis project, secondary assay (AID 492998); assay type: functional, VeroE6; settings: Vero C1008
[7] = Luminescence Cell-Based Dose Retest to Confirm Inhibitors of Cancer Stem Cells. [Related pubchem assays (depositor defined):AID2717, AID2721]; assay type: functional; settings: Homo sapiens
[8] = molecular target: T3, Heat shock factor protein 1 (Mus musculus, UniProt P38532); test: inhibition of MG132-induced HSE-luciferase signal, confirmation, cell-based, NIH3T3, luminescence, dose retest (AID 2382); assay type: functional;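 also: NIH3T3 fibroblasts with HSF1-driven luciferase reporter stressed by proteasome inhibitor MG132; luminescence from HSF1-driven luciferase expression after 8 hours of MG132 stress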
T3 sequence (P38532 whole entry): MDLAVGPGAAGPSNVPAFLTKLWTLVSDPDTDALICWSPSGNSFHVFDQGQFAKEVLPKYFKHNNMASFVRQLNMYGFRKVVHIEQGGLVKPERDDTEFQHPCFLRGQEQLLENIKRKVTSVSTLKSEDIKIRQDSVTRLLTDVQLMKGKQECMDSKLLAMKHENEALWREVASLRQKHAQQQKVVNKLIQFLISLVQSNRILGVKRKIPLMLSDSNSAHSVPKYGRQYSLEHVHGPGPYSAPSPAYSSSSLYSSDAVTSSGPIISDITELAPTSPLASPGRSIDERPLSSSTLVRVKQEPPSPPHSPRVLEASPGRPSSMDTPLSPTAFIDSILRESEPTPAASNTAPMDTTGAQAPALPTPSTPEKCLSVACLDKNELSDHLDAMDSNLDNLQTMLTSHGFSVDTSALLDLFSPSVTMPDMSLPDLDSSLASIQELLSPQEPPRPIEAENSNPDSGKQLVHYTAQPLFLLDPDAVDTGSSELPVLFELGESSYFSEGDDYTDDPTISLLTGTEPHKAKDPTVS

ORF 73 = molecular target: T4, ORF 73 (Human herpesvirus 8, UniProt O40947); test: inhibitors of C-LANA binding to LBS DNA, dose response, biochemical, fluorescence polarization, cherry-picked samples (AID 504725); parameters: species or system Human gammaherpesvirus 8;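 also: fluorescence polarization of a labeled DNA duplex reporting LANA DNA binding; potency is for inhibitors that block LANA binding to the DNA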
T4 sequence (O40947 whole entry): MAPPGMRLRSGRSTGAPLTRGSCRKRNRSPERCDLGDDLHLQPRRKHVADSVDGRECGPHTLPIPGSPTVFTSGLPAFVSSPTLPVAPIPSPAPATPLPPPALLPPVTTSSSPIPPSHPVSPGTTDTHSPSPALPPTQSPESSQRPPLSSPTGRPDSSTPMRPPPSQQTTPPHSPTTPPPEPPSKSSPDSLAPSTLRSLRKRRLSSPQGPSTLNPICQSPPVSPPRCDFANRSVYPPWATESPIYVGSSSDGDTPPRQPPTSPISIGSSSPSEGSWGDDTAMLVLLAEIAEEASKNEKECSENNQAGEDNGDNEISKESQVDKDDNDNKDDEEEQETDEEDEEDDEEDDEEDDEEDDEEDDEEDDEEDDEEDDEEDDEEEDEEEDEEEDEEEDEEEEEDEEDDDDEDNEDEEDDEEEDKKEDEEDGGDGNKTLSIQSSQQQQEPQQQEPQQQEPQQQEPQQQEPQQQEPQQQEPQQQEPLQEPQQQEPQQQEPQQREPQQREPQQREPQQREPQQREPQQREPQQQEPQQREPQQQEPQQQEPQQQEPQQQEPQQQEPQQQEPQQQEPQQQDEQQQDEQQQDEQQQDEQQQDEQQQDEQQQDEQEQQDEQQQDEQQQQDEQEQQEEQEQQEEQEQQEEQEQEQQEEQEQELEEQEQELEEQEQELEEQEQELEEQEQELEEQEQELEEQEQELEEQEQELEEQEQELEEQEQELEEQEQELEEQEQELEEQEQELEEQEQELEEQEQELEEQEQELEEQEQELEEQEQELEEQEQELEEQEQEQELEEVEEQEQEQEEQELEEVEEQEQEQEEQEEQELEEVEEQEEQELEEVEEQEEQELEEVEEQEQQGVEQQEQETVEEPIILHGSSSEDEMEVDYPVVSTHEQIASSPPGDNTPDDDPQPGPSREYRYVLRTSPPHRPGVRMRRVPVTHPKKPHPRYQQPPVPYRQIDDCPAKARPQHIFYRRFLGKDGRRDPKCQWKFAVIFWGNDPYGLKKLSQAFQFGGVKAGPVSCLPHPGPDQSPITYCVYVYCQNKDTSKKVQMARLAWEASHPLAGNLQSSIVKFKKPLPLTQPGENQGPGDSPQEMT

Protein skinhead-1 = molecular target: T5, Protein skinhead-1 (Caenorhabditis elegans, UniProt P34707); assay type: functional
T5 sequence (P34707 whole entry): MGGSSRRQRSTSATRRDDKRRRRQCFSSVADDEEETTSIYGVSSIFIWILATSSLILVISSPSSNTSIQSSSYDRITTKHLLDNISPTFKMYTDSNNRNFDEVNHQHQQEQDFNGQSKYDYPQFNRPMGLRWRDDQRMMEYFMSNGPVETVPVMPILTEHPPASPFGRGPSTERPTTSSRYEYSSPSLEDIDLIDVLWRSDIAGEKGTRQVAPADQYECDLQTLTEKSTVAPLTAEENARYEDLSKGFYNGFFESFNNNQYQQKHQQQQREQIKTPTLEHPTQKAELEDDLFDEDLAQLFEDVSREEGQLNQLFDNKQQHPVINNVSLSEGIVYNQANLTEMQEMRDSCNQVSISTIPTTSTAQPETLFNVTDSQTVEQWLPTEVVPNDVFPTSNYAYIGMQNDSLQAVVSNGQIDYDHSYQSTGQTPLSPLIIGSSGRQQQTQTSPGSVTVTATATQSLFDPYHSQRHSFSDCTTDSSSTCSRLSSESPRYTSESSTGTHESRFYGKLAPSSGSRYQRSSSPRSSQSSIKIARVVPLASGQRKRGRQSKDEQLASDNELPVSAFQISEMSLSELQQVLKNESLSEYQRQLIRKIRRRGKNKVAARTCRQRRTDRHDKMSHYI

[9] = cytotoxicity in HEK-293T cells, dose response, cytotoxicity control for TCR NF-kB inhibitor project, luminescence, T-cell screen hits (AID 489026); assay type: functional, cell-based;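 also: cells exposed to compound about 14 hours before the viability readout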
[10] = molecular target: T6, Endoribonuclease toxin MazF (Escherichia coli K-12, UniProt P0AE70); test: fluorescent RNA oligo signal without MazF, dose response, counter-screen for MazEF activator project, biochemical, fluorescence, single-stranded RNase substrate (AID 588502); assay type: functional
T6 sequence (P0AE70 whole entry): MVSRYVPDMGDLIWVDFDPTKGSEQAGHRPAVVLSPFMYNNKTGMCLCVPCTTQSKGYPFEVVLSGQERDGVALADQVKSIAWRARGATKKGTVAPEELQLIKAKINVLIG

[11] = molecular target: T6, Endoribonuclease toxin MazF; test: MazF toxin RNase activators, dose response, biochemical, fluorescence, single-stranded RNA substrate, uHTS hits (AID 588481); assay type: functional
Streptococcus = test: Group A Streptococcus viability loss, dose response, counter-screen for streptokinase expression inhibitor project, luminescence, BacTiterGlo (AID 1915); assay type: functional, organism-based;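 also: potency for reduction of bacterial viability or growth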
X-box-binding protein 1 = molecular target: T7, X-box-binding protein 1 (Homo sapiens, UniProt P17861); assay type: functional, Cricetulus griseus;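 also: confirmatory dose-response counter-screen serving a CHOP assay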
T7 sequence (P17861 whole entry): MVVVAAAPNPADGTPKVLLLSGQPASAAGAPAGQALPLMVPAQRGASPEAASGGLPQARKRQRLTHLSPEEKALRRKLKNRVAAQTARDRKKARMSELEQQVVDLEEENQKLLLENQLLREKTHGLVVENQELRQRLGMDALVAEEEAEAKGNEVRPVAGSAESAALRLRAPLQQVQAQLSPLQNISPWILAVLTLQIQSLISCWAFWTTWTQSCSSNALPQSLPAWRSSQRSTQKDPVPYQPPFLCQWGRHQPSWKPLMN

Streptokinase A = molecular target: T8, Streptokinase A (Streptococcus pyogenes serotype M1, UniProt P10520); test: S. pyogenes streptokinase expression inhibitors, potency, dose response, plasminogen activation absorbance, OD405 (AID 1914); assay type: functional, Streptococcus pyogenes M1 GAS;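 also: secreted streptokinase activity via plasminogen activation per viability signal from cell pellet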
T8 sequence (P10520 whole entry): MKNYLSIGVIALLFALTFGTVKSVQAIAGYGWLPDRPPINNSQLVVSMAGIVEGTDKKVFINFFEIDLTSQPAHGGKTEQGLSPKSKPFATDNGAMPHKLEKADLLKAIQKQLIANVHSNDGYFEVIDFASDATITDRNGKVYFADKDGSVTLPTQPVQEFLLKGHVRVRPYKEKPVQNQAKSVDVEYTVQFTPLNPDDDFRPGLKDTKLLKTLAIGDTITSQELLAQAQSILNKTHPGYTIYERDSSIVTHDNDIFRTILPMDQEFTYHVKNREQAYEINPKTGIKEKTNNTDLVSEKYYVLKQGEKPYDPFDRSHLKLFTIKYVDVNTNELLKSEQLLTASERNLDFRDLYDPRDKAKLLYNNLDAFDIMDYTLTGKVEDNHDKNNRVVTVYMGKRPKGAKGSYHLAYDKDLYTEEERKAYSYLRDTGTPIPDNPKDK

[12] = system: Streptococcus sp. 'group A'; test: growth inhibition of control SK(-) GAS strain, dose response, counter-screen for streptokinase expression inhibitor project, luminescence, kanamycin, BacTiterGlo, confirmation (AID 1900); assay type: functional, organism-based
Trypsin = Trypsin (Sus scrofa, UniProt P00761); test: porcine trypsin inhibitors, dose response, selectivity assay for Rce1 protease inhibitor project, biochemical, quenched peptide fluorescence, cherry-pick (AID 488789)
[13] = molecular target: DNA dC->dU-editing enzyme APOBEC-3G (Homo sapiens, UniProt Q9HC16); test: Dose Response confirmation of small molecule APOBEC3G DNA Deaminase Inhibitors via a fluorescence-based single-stranded DNA deaminase assay. [Related pubchem assays (depositor defined):AID493012, AID493028]; assay type: functional
Sequence of DNA dC->dU-editing enzyme APOBEC-3G (Q9HC16 whole entry): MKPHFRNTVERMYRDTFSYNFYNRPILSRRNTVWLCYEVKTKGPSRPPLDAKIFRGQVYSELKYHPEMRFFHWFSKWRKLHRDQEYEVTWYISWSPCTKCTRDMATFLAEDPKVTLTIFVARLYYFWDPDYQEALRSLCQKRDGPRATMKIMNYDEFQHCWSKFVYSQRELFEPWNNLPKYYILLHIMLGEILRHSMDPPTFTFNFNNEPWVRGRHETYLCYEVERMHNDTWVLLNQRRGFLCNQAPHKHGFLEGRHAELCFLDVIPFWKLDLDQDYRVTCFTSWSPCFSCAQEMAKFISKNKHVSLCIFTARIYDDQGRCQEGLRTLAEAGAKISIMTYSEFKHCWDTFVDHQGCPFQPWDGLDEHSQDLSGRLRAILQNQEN

SUMO-activating enzyme [14] = molecular target: T9, SUMO-activating enzyme (Homo sapiens, UniProt Q9UBT2); test: SUMOylation inhibitor hit validation, confirmation, SUMOylation inhibitor project, biochemical, AlphaScreen (AID 2018); assay type: functional
T9 sequence (Q9UBE0 whole entry): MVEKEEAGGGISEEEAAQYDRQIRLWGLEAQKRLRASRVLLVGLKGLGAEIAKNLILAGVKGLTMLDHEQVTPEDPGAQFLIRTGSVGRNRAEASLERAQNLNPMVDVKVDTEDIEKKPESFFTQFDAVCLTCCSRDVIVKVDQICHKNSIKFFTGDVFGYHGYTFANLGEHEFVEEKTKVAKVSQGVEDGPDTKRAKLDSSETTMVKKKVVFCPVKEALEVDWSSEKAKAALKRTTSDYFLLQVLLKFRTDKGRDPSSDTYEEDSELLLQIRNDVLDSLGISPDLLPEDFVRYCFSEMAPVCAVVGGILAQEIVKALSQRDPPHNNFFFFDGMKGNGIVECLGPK
T9 sequence (Q9UBT2 whole entry): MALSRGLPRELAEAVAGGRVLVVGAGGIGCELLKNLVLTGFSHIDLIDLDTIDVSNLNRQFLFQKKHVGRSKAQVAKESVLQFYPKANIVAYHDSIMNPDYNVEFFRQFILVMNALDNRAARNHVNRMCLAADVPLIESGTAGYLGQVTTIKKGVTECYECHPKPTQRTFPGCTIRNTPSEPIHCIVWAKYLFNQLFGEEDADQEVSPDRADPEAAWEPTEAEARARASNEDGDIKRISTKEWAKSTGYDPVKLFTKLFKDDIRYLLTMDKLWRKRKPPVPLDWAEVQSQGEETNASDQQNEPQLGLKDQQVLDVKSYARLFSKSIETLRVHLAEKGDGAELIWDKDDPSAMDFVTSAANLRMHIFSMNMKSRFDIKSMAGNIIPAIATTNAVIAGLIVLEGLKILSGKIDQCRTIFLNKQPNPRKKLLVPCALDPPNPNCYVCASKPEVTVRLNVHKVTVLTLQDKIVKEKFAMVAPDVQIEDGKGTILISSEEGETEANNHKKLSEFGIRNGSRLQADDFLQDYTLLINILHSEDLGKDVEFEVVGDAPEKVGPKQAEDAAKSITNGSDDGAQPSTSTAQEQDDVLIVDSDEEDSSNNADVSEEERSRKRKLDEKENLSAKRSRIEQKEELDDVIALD

SUMO-activating enzyme [15] = molecular target: T9, SUMO-activating enzyme; test: inhibitors of in vitro SUMOylation cascade, primary screen, biochemical, HTRF, uHTS (AID 2006); assay type: protein-complex assay
[16] = molecular target: Induced myeloid leukemia cell differentiation protein Mcl-1 (Homo sapiens, UniProt Q07820); assay type: functional

T1 sequence (Q00975 whole entry): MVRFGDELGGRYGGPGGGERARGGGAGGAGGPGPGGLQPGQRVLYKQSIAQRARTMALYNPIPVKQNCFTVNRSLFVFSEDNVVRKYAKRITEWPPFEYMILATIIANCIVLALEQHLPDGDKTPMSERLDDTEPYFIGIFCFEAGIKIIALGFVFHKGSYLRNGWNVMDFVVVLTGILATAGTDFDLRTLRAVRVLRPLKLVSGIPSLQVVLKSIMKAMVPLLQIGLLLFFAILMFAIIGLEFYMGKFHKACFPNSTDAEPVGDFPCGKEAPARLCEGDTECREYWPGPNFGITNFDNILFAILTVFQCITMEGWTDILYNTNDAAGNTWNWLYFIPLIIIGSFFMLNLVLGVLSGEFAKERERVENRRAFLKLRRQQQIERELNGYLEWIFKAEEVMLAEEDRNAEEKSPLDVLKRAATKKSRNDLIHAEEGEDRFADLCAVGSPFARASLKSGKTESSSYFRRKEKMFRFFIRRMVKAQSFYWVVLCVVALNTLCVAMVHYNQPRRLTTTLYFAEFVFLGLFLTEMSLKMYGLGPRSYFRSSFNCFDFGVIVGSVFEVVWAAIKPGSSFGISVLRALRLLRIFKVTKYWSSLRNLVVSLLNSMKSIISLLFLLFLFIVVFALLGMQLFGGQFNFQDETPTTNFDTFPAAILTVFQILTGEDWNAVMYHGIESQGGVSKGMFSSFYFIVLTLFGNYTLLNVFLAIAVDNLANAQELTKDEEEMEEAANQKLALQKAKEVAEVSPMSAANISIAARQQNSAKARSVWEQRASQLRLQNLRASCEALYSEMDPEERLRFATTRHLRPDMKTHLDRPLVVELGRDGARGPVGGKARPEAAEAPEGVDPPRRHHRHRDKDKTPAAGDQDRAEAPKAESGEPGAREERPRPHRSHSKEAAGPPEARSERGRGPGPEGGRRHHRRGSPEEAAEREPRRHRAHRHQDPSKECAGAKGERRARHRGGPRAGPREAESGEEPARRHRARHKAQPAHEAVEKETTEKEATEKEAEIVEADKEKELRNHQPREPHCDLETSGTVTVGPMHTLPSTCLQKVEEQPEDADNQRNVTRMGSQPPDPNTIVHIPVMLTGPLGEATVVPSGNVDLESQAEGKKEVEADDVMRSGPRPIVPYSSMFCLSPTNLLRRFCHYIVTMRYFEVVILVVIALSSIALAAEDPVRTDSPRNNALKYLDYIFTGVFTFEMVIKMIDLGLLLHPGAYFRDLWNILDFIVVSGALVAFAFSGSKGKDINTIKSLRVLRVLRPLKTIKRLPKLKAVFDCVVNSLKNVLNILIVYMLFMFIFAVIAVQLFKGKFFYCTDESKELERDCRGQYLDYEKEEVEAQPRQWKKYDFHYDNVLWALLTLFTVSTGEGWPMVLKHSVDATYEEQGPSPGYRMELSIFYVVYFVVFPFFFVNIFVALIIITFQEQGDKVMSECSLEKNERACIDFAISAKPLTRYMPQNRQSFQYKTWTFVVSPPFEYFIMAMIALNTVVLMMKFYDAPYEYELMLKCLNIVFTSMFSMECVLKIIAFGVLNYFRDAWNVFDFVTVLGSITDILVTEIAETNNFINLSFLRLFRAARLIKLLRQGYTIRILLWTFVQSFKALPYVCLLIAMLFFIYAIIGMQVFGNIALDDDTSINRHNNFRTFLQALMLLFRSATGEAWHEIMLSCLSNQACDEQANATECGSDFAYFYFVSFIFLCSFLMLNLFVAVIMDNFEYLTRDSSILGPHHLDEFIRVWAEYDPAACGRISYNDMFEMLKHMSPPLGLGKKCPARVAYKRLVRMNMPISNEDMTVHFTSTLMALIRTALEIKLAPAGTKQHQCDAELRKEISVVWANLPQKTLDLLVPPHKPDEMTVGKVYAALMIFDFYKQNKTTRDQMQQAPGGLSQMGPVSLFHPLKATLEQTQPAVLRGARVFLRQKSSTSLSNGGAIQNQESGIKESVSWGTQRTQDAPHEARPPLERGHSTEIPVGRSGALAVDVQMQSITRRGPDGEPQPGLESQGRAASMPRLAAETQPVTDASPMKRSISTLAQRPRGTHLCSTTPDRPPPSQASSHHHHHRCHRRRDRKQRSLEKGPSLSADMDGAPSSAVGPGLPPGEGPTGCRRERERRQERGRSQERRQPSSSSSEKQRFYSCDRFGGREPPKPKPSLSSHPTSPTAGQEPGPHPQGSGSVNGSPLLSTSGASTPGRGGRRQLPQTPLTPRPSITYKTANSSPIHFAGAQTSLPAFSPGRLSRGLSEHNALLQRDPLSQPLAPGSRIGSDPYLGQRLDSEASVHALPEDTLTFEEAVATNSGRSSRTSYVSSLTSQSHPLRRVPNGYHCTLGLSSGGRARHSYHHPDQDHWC
T1 sequence (Q02410 whole entry): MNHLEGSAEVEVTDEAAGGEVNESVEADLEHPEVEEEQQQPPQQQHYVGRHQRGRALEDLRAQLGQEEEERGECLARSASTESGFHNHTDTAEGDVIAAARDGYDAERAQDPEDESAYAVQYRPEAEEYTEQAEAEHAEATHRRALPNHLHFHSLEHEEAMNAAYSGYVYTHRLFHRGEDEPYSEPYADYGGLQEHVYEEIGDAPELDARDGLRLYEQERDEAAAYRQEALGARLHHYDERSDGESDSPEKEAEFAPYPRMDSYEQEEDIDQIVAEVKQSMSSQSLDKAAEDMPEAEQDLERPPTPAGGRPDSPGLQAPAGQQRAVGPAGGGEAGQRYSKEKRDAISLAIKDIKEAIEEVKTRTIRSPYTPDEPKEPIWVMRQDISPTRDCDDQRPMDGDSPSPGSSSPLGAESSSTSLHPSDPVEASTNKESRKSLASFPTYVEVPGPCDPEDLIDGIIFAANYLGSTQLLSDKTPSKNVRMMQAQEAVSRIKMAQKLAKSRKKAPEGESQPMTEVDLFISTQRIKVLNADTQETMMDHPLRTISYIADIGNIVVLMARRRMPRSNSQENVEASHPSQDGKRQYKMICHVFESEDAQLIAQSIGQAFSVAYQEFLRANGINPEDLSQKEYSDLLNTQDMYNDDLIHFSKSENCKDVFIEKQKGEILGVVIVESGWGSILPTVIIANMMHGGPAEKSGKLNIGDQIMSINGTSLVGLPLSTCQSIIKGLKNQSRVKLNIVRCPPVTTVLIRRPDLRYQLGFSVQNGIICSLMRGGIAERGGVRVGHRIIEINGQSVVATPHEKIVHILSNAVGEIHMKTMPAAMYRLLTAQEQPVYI

C=CCOC(=O)/C=C/C(=O)NC(N)=O
IC50 [1]: 7.61 µM (active)
IC50 [2]: 2.95 µM (active)

CC(=O)c1cnc(-c2ccccc2)s1
IC50 [3]: > 100 µM (not active)
IC50 [4]: > 100 µM (inactive)

COC(=O)c1ccc(Sc2nnnn2-c2ccccc2)c([N+](=O)[O-])c1
CC50 [5]: 20.5 µM (active)
IC50 (cells): 14.3 µM (active)
CC50 [6]: > 20 µM (active)

CNC(=O)C1C(S)=NC(N)=C(C#N)C1c1ccccc1 (stereo not drawn)
IC50 [1]: 1.68 µM (active)
AC50 [7]: > 195 µM (inactive)
EC50 [8]: 19 µM (active)
IC50 [2]: > 50 µM (inactive)

CC1CCCC(NC(=O)c2cn(C)c3ccc(S(=O)(=O)N4CCCC4)cc3c2=O)C1C (stereo not drawn)
IC50 [3]: > 100 µM (not active)
IC50 [4]: > 100 µM (inactive)

Nc1cccc2cc(S(=O)(=O)O)ccc12
AC50 (ORF 73): 108 µM (active)
IC50 (Protein skinhead-1): > 100 µM (inactive)

O=C(c1ccccc1)c1cc([N+](=O)[O-])ccc1N1CCOCC1
IC50 [9]: > 80 µM (inactive)

CCC(=O)OC1c2ccccc2C(=O)N1Cc1ccccc1 (stereo not drawn)
IC50 [3]: > 100 µM (not active)
IC50 [4]: > 100 µM (inactive)

CCC(=O)Oc1ccc2c(c1)O/C(=C\c1ccco1)C2=O
EC50 [10]: 31.5 µM (inactive)
AC50 (ORF 73): 14.1 µM (active)
EC50 [11]: > 99 µM (inactive)

CCc1nc2c(cnn2-c2ccc(Cl)cc2)c(=O)n1-c1ccc(OC)cc1
EC50 (Streptococcus): > 150 µM (not active)
Absolute IC50 (XBP1) (X-box-binding protein 1): 10 µM
EC50 (Streptokinase A): > 150 µM (not active)
EC50 [12]: 28.3 µM (active)

COc1ccc(S(=O)(=O)NCC2CCCO2)cc1NC(=O)c1ccccc1F (stereo not drawn)
AC50 (Trypsin): 33 µM (active)

CCOC(=O)c1c(NC(=O)c2ccccc2Cl)sc2c1CCc1ccccc1-2
IC50 [13]: > 100 µM (inactive)

Cc1nc([N+](=O)[O-])c(Br)n1CC(=O)c1ccccc1
CC50 [5]: 40 µM (active)
IC50 (cells): 10.8 µM (active)
CC50 [6]: 18.6 µM (active)

N=C1S/C(=C\c2ccco2)C(=O)N1c1ccc2c(c1)OCO2
IC50 (SUMO-activating enzyme [14]): 13.4 µM (active)
IC50 (SUMO-activating enzyme [15]): 39.9 µM (active)
IC50 [16]: 9.96 µM (active)
